Values after ≈ are worked out from the molar mass of the structure shown. Like-named read-outs stand apart in the source and are kept apart here. Where a SMILES comes first, the peptide text is derived from it. Bridges are numbered along the chain shown (N, C = ends). [ ]: non-standard residue; d: D form. The star is where a group is joined. Octanoyl = CCCCCCCC(=O)*; Dab = NCC[C@H](N)C(=O)O; Abu = CC[C@H](N)C(=O)O
Tests used:
Escherichia coli C175-94 = test: Murine urinary tract infection efficacy; type: in vivo; details: for dose-response in the CFUs in the bladder and in the kidneys: 0.25-2 mg/kg/dose s.c. twice a day
Method: The study used 64 outbred, OF-1 female mice (Charles River, France) weighing 28-32 grams and Escherichia coli C175-94 (serotype O8:K48:H4), a clinical isolate elaborating type 1 fimbriae. The peptides were NAB815 (Lot 1054308) and polymyxin B (Sigma-Aldrich, batch BCBF8382V). The study was performed by Statens Serum Institut, Copenhagen, Denmark.
Three days before the start of the study and during the study, the mice had free access to 5% glucose in drinking water.
On day 0, the urine was removed from the bladder by gently pressing the abdomen. Thereafter, the mouse was anaesthetized with approximately 0.15 ml of Zoletil mix s.c. A syringe with polyethylene catheter (Becton Dickison) containing the bacterial suspension was inserted via the urethra into the bladder and 50 μl of the bacterial inoculum was slowly injected into the bladder. Thereafter, the mouse was left in the cage. Mice were kept in a warming cabinet and were under surveillance until fully awake.
After measuring the colony forming units (CFUs), the inoculum was determined to contain 9.38 log 10 CFU/ml, corresponding to 8.08 log 10 CFU/mouse.
On day 1 and day 2 postinfection, the mice were treated subcutaneously with solutions (0.2 ml) containing NAB815, polymyxin B or vehicle (0.9% NaCl) twice a day. The treatment groups (six mice in each) were the following: vehicle control; NAB815, 0.25 mg/kg/dose; NAB815, 0.5 mg/kg/dose; NAB815, 1 mg/kg/dose; NAB815, 2 mg/kg/dose; polymyxin B, 0.25 mg/kg/dose; polymyxin B, 0.5 mg/kg/dose; polymyxin B, 1 mg/kg/dose; and polymyxin B, 2 mg/kg/dose. In addition, one group served as a pretreatment control to help to assess as how the infection has proceeded before the start of the treatment on day 1 postinfection.
On days 1, 2 and 3 postinfection urine was sampled for colony counts. On day 1 postinfection (pretreatment control group) and on day 3 postinfection (all the other groups) after the urine sample was taken, mice were sacrificed by cervical dislocation and bladder and kidneys were removed aseptically. The bladder and kidneys were stored at −80° C. and later homogenized in 0.5 and 1 ml saline, respectively.
CFUs in urine were determined immediately within 2-3 hours after sampling. Frozen organs were thawed and homogenized with steel beads on a tissue lyser. All samples, urine, kidney and bladder, were 10 fold diluted in saline and 20-μl spots were applied on blood agar plates in duplicates. In addition, undiluted samples of urine (2-100 μl depending on the amount of urine) were spread on a separate agar plate to determine the lowest possible detection level of the colony counts. All agar plates were incubated 18-22 h at 35° C. in ambient air.

A. baumannii ATCC 19606 = details: A. baumannii ATCC 19606
P. aeruginosa JMI 7445 = details: P. aeruginosa JMI 7445
K. pneumoniae ATCC 43816 = details: K. pneumoniae ATCC 43816
E. coli ATCC 25922 = details: E. coli ATCC 25922
E. coli JMI 3328 = details: for MIC: E. coli JMI 3328
[1] = of all 24 mice treated at 0.25-2 mg/kg/dose
[2] = in combination with rifampin 0.25 μg/mL, A. baumannii CMI 417
[3] = in combination with rifampin 0.25 μg/mL
[4] = peptide at 1 μg/mL, E. coli JM13328

Row | Compound | dose-response in the CFUs in the bladder and in the kidneys (Escherichia coli C175-94) | number of mice with bacterial levels below the detection limit in the urine (Escherichia coli C175-94; [1]) [mice] | MIC (A. baumannii CMI 417; [2]) [µg/mL] | MIC (A. baumannii ATCC 19606; alone) [µg/mL] | MIC (A. baumannii ATCC 19606; [3]) [µg/mL] | MIC (P. aeruginosa JMI 7445; alone) [µg/mL] | MIC (K. pneumoniae ATCC 43816; [3]) [µg/mL] | MIC (E. coli ATCC 25922; alone) [µg/mL] | MIC (E. coli ATCC 25922; [3]) [µg/mL] | MIC (E. coli JMI 3328; alone) [µg/mL] | MIC (E. coli JMI 3328; [3]) [µg/mL] | also measured
1 | CCCCCCCC(=O)N[C@@H](CCN)C(=O)N[C@H](C(=O)N[C@@H](C(=O)N[C@H]1CCNC(=O)[C@H]([C@@H](C)O)NC(=O)[C@H](CCN)NC(=O)[C@H](CC)NC(=O)[C@H](CC(C)C)NC(=O)[C@@H](Cc2ccccc2)NC(=O)[C@H](CCN)NC1=O)[C@H](C)O)[C@@H](C)O [NAB815, octanoyl-αDab-Thr-DThr-[cyclo-α,γDab-αDab-DPhe-Leu-Abu-αDab-Thr]] (Octanoyl-[Dab]T[dT][Dab][Dab][dF]L[Abu][Dab]T; lactam 4-C) | showed a tendency of a dose-response | 8 | 2 | 4 (≈ 3.4 µM) | 0.5 to 2 | 8 (≈ 6.81 µM) | 1 | 2 (≈ 1.7 µM) | 1 | 4 (≈ 3.4 µM) | 1 | CFU levels in urine, day 3 vs pretreatment control day 1 (Escherichia coli C175-94; 0.25 mg/kg/dose s.c. twice a day, OF-1 female mice): no significant differences; CFU levels in urine, day 3 vs pretreatment control day 1 (Escherichia coli C175-94; 0.5 mg/kg/dose s.c. twice a day, OF-1 female mice): no significant differences; CFU levels in urine, day 3 vs pretreatment control day 1 (Escherichia coli C175-94; 1 mg/kg/dose s.c. twice a day, OF-1 female mice, ** p<0.01): significant reduction of CFU levels in urine; CFU levels in urine, day 3 vs pretreatment control day 1 (Escherichia coli C175-94; 2 mg/kg/dose s.c. twice a day, OF-1 female mice, * p<0.05): significant reduction of CFU levels in urine; number of mice with bacterial levels below the detection limit in the kidneys (Escherichia coli C175-94; [1]): 20 mice; MIC of rifampin in the presence of the peptide (K. pneumoniae ATCC 43816; peptide at 1 μg/mL): 0.25 µg/mL; factor of decrease of the MIC of rifampin (K. pneumoniae ATCC 43816; peptide at 1 μg/mL): 64; MIC of rifampin in the presence of the peptide (E. coli ATCC 25922; peptide at 1 μg/mL): 0.25 µg/mL; factor of decrease of the MIC of rifampin (E. coli ATCC 25922; peptide at 1 μg/mL): 32; MIC of rifampin in the presence of the peptide (E. coli JMI 3328; [4]): 0.25 µg/mL; factor of decrease of the MIC of rifampin (E. coli JMI 3328; [4]): 32
2 | Polymyxin B | did not show any dose-response tendency | 1 | 1 | 2 | 0.5 | 2 | 0.5 to 1 | 2 | 0.5 to 1 | 2 | 0.5 to 1 | CFU levels in urine, day 3 vs pretreatment control day 1 (Escherichia coli C175-94; any dose group (0.25, 0.5, 1, 2 mg/kg/dose) s.c. twice a day): no significant differences; MIC (A. baumannii CMI 417; alone, A. baumannii CMI 417 (polymyxin-nonsusceptible)): 32 µg/mL; MIC (P. aeruginosa JMI 7445; [3]): 1 µg/mL; MIC (K. pneumoniae ATCC 43816; alone): 2 µg/mL

— patent publication US9763996B2, “Polymyxin derivative and uses thereof” (Northern Antibiotics Ltd., priority 2015, dated 2017)
